Legend:
[1] = molecular target: T1, human D2R/β-arrestin (Homo sapiens (Human), UniProt P14416); assay: cell-based; settings: β-arrestin Antagonist, CHO-K1 cell line expressing human D2R/β-arrestin; quinpirole used as agonist
[2] = molecular target: T1, human D2R/β-arrestin; assay: Gi/cAMP agonist assay (Lance Ultra cAMP, Forskolin); assay type: cell-based; settings: CHO-K1 cell line expressing human D2R/β-arrestin
Protocol: (§1) The assays can be performed using proper detection reagents either prepared using routine methods known in the art or commercially available (e.g., PE Lance Ultra cAMP kit (TRF0263)). Cells are grown to the necessary confluence and then detached. The cells are then centrifuged, washed, resuspended, and seeded into a container (e.g., 384-well plate). The cells are incubated (e.g., at 37° C., 5% CO2) for the appropriate period of time (e.g., 24 hours), before various compounds (e.g., a compound of the invention or a control compound) are added to the cells. Afterwards, cAMP inducing agents (e.g., Forskolin) are added to and incubated with the cells before detection reagents (e.g., a cAMP antibody, such as ULight-anti-cAMP solution) are added to the cells. Read-out (e.g., luminescence, or fluorescence) is detected using standard equipment.
Compounds were pin-transferred (100 nL) to the cells, and incubated for 10 min. at 37° C. […] Eu-cAMP tracer solution (100, PerkinElmer, […] in 17.64 ml kit buffer) and ULight-anti-cAMP solution (100, 120 μL antibody in 17.88 ml kit buffer) was then added to each well.

[3] = molecular target: T1, human D2R/β-arrestin; assay: β-Arrestin agonist assay (PathHunter); assay type: cell-based; settings: CHO-K1 cell line expressing human D2R/β-arrestin
Protocol: as §1, with “PathHunter® β-Arrestin Detecting Kit (DiscoveRX)).” for “PE Lance Ultra cAMP kit (TRF0263)).”, “After incubation of the cells” for “Afterwards, cAMP inducing agents (e.g., Forskolin) are added to and incubated”, “compounds,” for “cells before”, “buffer containing Emerald II: Galactor-Star” for “cAMP antibody, such”, “provided DiscoveRX)” for “ULight-anti-cAMP solution)”, “The read-out” for “Read-out”
The detection reagent (9.6 μL, Buffer:Emerald II:Galactor-Star in a 19:5:1 ratio, i.e., 14.06 mL:3.7 mL:0.74 mL=18.5 mL) was then added to the agonist plates.

[4] = molecular target: T1, human D2R/β-arrestin; assay: cell-based; settings: cAMP Antagonist, CHO-K1 cell line expressing human D2R/β-arrestin; quinpirole used as agonist

T1 sequence (P14416 whole entry): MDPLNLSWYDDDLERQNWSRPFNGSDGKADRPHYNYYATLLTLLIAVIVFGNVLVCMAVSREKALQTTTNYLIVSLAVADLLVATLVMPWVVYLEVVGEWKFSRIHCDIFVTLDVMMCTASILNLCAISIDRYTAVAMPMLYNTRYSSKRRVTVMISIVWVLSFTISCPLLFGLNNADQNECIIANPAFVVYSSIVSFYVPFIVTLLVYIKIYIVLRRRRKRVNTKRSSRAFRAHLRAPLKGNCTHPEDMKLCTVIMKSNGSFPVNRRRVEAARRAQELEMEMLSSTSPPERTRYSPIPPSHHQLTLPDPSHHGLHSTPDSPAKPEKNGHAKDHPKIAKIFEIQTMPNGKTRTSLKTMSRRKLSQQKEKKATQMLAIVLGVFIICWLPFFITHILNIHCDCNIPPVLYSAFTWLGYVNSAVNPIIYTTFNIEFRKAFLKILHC

| SMILES | IC50 [1] | EC50 [2] | EC50 [3] | IC50 [4] |
| --- | --- | --- | --- | --- |
| CC1(CNC(c2ccc(F)cc2)c2ccccn2)CCN(CCOc2ccccc2C(F)(F)F)CC1 (single isomer, unassigned) [Compound 101a, 1-(4-fluorophenyl)-N-((4-methyl-1-(2-(2-(trifluoromethyl)phenoxy)ethyl)piperidin-4-yl)methyl)-1-(pyridin-2-yl)methanamine] | 0.1 to 1 µM | > 30 µM | > 30 µM | 0.1 to 1 µM |
| CN(CC1(C)CCN(CCOc2ccccc2)CC1)C(c1ccc(Cl)cc1)c1ccccn1 (stereo not shown) [Compound 131, 1-(4-chlorophenyl)-N-methyl-N-((4-methyl-1-(2-phenoxyethyl)piperidin-4-yl)methyl)-1-(pyridin-2-yl)methanamine] | 1 to 10 µM | < 0.1 µM | 1 to 10 µM | > 30 µM |
| O=C(NC(c1ccc(Cl)cc1)c1ccccn1)C1CCN(CCCOc2ccccc2)CC1 (stereo not shown) [Compound 62, N-((4-chlorophenyl)(pyridin-2-yl)methyl)-1-(3-phenoxypropyl)piperidine-4-carboxamide] | 1 to 10 µM | > 30 µM | > 30 µM | 0.1 to 1 µM |
| COc1cccc(C(NCC2CCN(CCOc3ccccc3)CC2)c2ccccn2)c1 (stereo not shown) [Compound 80, 1-(3-methoxyphenyl)-N-((1-(2-phenoxyethyl)piperidin-4-yl)methyl)-1-(pyridin-2-yl)methanamine] | 1 to 10 µM | 0.1 to 1 µM | > 30 µM | 1 to 10 µM |
| CC1(CNC(c2ccc(F)cc2)c2ccccn2)CCN(CCOc2ccccc2C(F)(F)F)CC1 (stereo not shown) [Compound 101, 1-(4-fluorophenyl)-N-((4-methyl-1-(2-(2-(trifluoromethyl)phenoxy)ethyl)piperidin-4-yl)methyl)-1-(pyridin-2-yl)methanamine] | 0.1 to 1 µM | > 30 µM | > 30 µM | < 0.1 µM |
| Fc1ccccc1C(NCC1CCN(CCOc2ccccc2)CC1)c1ccc(Cl)cc1 (stereo not shown) [Compound 81, 1-(4-chlorophenyl)-1-(2-fluorophenyl)-N-((1-(2-phenoxyethyl)piperidin-4-yl)methyl)methanamine] | 0.1 to 1 µM | > 30 µM | > 30 µM | 0.1 to 1 µM |
| O=C(NC(c1ccc(Cl)cc1)c1ccccn1)C1CCN(CCCCOc2ccccc2)CC1 (stereo not shown) [Compound 110] | 1 to 10 µM | > 30 µM | > 30 µM | 0.1 to 1 µM |
| COc1ccc(C(NC(=O)C2CCN(CCOc3ccccc3)CC2)c2ccc(Cl)cc2)cc1 (stereo not shown) [Compound 44] | 1 to 10 µM | > 30 µM | > 30 µM | 10 to 30 µM |
| CC(C1CCN(CCOc2ccccc2)CC1)N(C)C(c1ccc(Cl)cc1)c1ccccn1 (single isomer, unassigned) [Compound 97a, N-((4-chlorophenyl)(pyridin-2-yl)methyl)-N-methyl-1-(1-(2-phenoxyethyl)piperidin-4-yl)ethan-1-amine] | 1 to 10 µM | 0.1 to 1 µM | > 30 µM | 0.1 to 1 µM |
| CC1(C(=O)NC(c2ccc(F)cc2)c2ccccn2)CCN(CCOc2ccccc2)CC1 (stereo not shown) [Compound 69, N-((4-fluorophenyl)(pyridin-2-yl)methyl)-4-methyl-1-(2-phenoxyethyl)piperidine-4-carboxamide] | 0.1 to 1 µM | < 0.1 µM | 0.1 to 1 µM | > 30 µM |
| O=C(NC(c1ccc2c(c1)OC(F)(F)O2)c1ccccn1)C1CCN(CCOc2ccc(F)cc2F)CC1 (single isomer, unassigned) [Compound 130a, N-((2,2-difluorobenzo[d][1,3]dioxol-5-yl)(pyridin-2-yl)methyl)-1-(2-(2,4-difluorophenoxy)ethyl)piperidine-4-carboxamide] | 1 to 10 µM | > 30 µM | > 30 µM | 0.1 to 1 µM |
| Fc1ccccc1OCCN1CCC(CN(CC(F)(F)F)C(c2ccc(Cl)cc2)c2ccccn2)CC1 (stereo not shown) [Compound 136, N-((4-chlorophenyl)(pyridin-2-yl)methyl)-2,2,2-trifluoro-N-((1-(2-(2-fluorophenoxy)ethyl)piperidin-4-yl)methyl)ethan-1-amine] | < 0.1 µM | 1 to 10 µM | > 30 µM | < 0.1 µM |
| c1ccc(OCCN2CCC(CNC(c3ccc4c(c3)OCO4)c3ccccn3)CC2)cc1 (stereo not shown) [Compound 102, 1-(benzo[d][1,3]dioxol-5-yl)-N-((1-(2-phenoxyethyl)piperidin-4-yl)methyl)-1-(pyridin-2-yl)methanamine] | 0.1 to 1 µM | 0.1 to 1 µM | > 30 µM | 0.1 to 1 µM |
| O=C(NC(c1ccc(Cl)cc1)c1ccccn1)C1CCN(CCOc2cccc(Cl)c2)CC1 (stereo not shown) [Compound 1, 1-(2-(3-chlorophenoxy)ethyl)-N-((4-chlorophenyl)(pyridin-2-yl)methyl)piperidine-4-carboxamide] | 0.1 to 1 µM | < 0.1 µM | > 30 µM | > 30 µM |
| COc1cccc(C(NC(=O)C2CCN(CCOc3ccc4ncsc4c3)CC2)c2ccccn2)c1 (stereo not shown) [Compound 82, 1-(2-(benzo[d]thiazol-6-yloxy)ethyl)-N-((3-methoxyphenyl)(pyridin-2-yl)methyl)piperidine-4-carboxamide] | 10 to 30 µM | > 30 µM | > 30 µM | 1 to 10 µM |
| Fc1ccc(C(NCC2CCN(CCOc3ccccc3F)CC2)c2ccccn2)cc1 (stereo not shown) [Compound 122, N-((1-(2-(2-fluorophenoxy)ethyl)piperidin-4-yl)methyl)-1-(4-fluorophenyl)-1-(pyridin-2-yl) methanamine] | 0.1 to 1 µM | 1 to 10 µM | > 30 µM | 0.1 to 1 µM |
| O=C(NC(c1ccc(Cl)cc1)c1ccccn1)C1CCN(CCOc2cccc(F)c2)CC1 (stereo not shown) [Compound 4] | 0.1 to 1 µM | < 0.1 µM | > 30 µM | > 30 µM |
| O=C(NC(c1ccc(Cl)cc1)c1ccncc1F)C1CCN(CCOc2ccccc2)CC1 (stereo not shown) [Compound 117, N-((4-chlorophenyl)(3-fluoropyridin-4-yl)methyl)-1-(2-phenoxyethyl) piperidine-4-carboxamide] | 1 to 10 µM | 0.1 to 1 µM | > 30 µM | > 30 µM |
| O=C(NC(c1ccc(F)cc1)c1ccc(F)cc1)C1CCN(CCOc2ccccc2)CC1 [Compound 47, N-(bis(4-fluorophenyl)methyl)-1-(2-phenoxyethyl)piperidine-4-carboxamide] | 1 to 10 µM | > 30 µM | > 30 µM | 0.1 to 1 µM |
| O=C(NC(c1ccc(F)cc1)c1ccccn1)C1CCN(Cc2nc3ccccc3o2)CC1 (stereo not shown) [Compound 60, 1-(benzo[d]oxazol-2-ylmethyl)-N-((4-fluorophenyl)(pyridin-2-yl)methyl)piperidine-4-carboxamide] | > 30 µM | > 30 µM | > 30 µM | > 30 µM |
| Clc1cccc(C2CCN(CCCOc3ccc4scnc4c3)CC2)c1Cl [UNC9994, reference compound] | 0.1 to 1 µM | < 0.1 µM | 0.1 to 1 µM | > 30 µM |
| COc1ccc(C(NC(=O)C2CCN(CCOc3ccccc3)CC2)c2ccccn2)cc1 (stereo not shown) [Compound 34] | 1 to 10 µM | 0.1 to 1 µM | > 30 µM | > 30 µM |
| O=C1CCc2ccc(OCCCCN3CCCN(c4cccc(Cl)c4Cl)CC3)nc2N1 [UNC9975, reference compound] | 0.1 to 1 µM | < 0.1 µM | > 30 µM | 0.1 to 1 µM |
| O=C(NC(c1ccc(Cl)cc1)c1ccc(F)cn1)C1CCN(CCOc2ccccc2)CC1 (stereo not shown) [Compound 116, N-((4-chlorophenyl)(5-fluoropyridin-2-yl)methyl)-1-(2-phenoxyethyl)piperidine-4-carboxamide] | 1 to 10 µM | 0.1 to 1 µM | > 30 µM | > 30 µM |
| COc1cccc(C(NC(=O)C2CCN(CCOc3ccccc3Cl)CC2)c2ccccc2F)c1 (stereo not shown) [Compound 86, 1-(2-(2-chlorophenoxy)ethyl)-N-((2-fluorophenyl)(3-methoxyphenyl)methyl)piperidine-4-carboxamide] | < 0.1 µM | > 30 µM | > 30 µM | < 0.1 µM |

Source: patent US10752588B2 (The Broad Institute, Inc., priority 2014, dated 2020)
